# Test results as given in publication PMC9086992 (Chemmedchem, 2022).
# Columns and labels:
# Type in all cases: cell-based
# [1] = tested on: CCRF-CEM leukemia cell line; experiment: cells; conditions: Homo sapiens, 48 h, read-out: % inhibition CCRF-CEM
# [2] = tested on: RPMI-8226 leukemia cell line; experiment: cells; conditions: Homo sapiens, RPMI-8226, 48 h, read-out: % inhibition RPMI-8226
# K562 leukemia cell line = conditions: 10 μM compound, 48 h treatment, CellTiter-Blue
# HL-60 leukemia cell line = experiment: cells; conditions: Homo sapiens, HL-60, 48 h, read-out: % inhibition HL-60
# [3] = tested on: MOLT-4 leukemia cell line; experiment: cells; conditions: Homo sapiens, MOLT-4, 48 h, read-out: % inhibition MOLT-4
smiles,measurement,setting,value
COc1cccc2c1C(=O)c1c(O)c3c(c(O)c1C2=O)C[C@@](O)(C(=O)CO)C[C@@H]3O[C@H]1C[C@H](N)[C@H](O)[C@H](C)O1 [doxorubicin],inhibition at 10 µM,[1],92.3 ± 1.3%
same,inhibition at 10 µM,[2],84.1 ± 3.2%
same,% inhibition K562,K562 leukemia cell line,78.2±4.1%
same,inhibition at 10 µM,HL-60 leukemia cell line,91.5 ± 0.6%
same,inhibition at 10 µM,[3],93.2 ± 2.6%
"C[C@H]1[C@H](OC(=O)CCC(=O)O)O[C@@H]2O[C@@]3(C)CC[C@H]4[C@H](C)CC[C@@H]1[C@@]24OO3 [artesunic acid, Artesunic acid]",inhibition at 10 µM,[1],9.4 ± 4%
same,inhibition at 10 µM,[2],27.3 ± 6.1%
same,inhibition at 10 µM,HL-60 leukemia cell line,44.3 ± 7.4%
same,inhibition at 10 µM,[3],9.9 ± 4.8%
